This passage reports IC50 results from US8367838B2, “Amines or amino alcohols as GLYT1 inhibitors” (Hoffmann-La Roche Inc., priority 2009, dated 2013).

Structures are written as SMILES. Counter-ions that a name gives are not always drawn.

The assay concerns the target T1, mGlyT-1b (Mus musculus, UniProt P28571).
T1 construct: host or cells: Flp-in-CHO
T1 sequence (P28571 1-651 isoform P28571-2): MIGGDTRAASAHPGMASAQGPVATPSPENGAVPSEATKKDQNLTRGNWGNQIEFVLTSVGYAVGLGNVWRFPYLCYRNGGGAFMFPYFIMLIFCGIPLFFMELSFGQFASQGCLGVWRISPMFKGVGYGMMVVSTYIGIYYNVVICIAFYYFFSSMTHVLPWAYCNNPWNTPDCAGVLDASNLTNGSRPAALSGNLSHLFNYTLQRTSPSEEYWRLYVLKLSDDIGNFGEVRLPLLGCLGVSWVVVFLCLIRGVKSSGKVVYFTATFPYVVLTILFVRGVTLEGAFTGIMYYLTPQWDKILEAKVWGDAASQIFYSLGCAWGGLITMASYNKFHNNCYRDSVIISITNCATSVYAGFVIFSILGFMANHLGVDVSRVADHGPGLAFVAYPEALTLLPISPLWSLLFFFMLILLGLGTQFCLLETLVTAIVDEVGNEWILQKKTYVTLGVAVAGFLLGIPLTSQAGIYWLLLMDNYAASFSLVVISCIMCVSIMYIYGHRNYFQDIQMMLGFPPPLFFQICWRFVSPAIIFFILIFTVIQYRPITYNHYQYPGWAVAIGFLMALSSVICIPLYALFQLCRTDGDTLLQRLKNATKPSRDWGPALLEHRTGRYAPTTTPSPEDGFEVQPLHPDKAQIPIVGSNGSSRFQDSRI
Put plainly: Glycine uptake inhibition assay (mGlyT-1b), [3H]-glycine uptake in transfected Flp-in-CHO cells. Format: cell-based. The note with it: Flp-in-CHO cells transfected with mGlyT-1b cDNA; [3H]-glycine 60 nM and 25 μM non-radioactive glycine; 20 min preincubation at 22° C.; read-out: IC50 (μM) at GlyT-1; Ic50 (hglyt1b). As for the experimental part:
Nutrient mixture F-12 (Gibco Life-technologies), fetal bovine serum (FBS) 5%, (Gibco life technologies), Penicillin/Streptomycin 1% (Gibco life technologies), Hygromycin 0.6 mg/ml (Gibco life technologies), Glutamine 1 mM Gibco life technologies).
150 mM NaCl, 10 mM Hepes-Tris, pH 7.4, 1 mM CaCl2, 2.5 mM KCl, 2.5 mM MgSO4, 10 mM (+) D-glucose. Flp-in™-CHO (Invitrogen Cat n° R758-07) cells stably transfected with mGlyT1b cDNA.
Glycine Uptake Inhibition Assay (mGlyT-1b)
On day 1 mammalian cells, (Flp-in™-CHO), transfected with mGlyT-1b cDNA, were plated at the density of 40,000 cells/well in complete F-12 medium, without hygromycin in 96-well culture plates. On day 2, the medium was aspirated and the cells were washed twice with uptake buffer (UB). The cells were then incubated for 20 min at 22° C. with either (i) no potential competitor, (ii) 10 mM non-radioactive glycine, (iii) a concentration of a potential inhibitor. A range of concentrations of the potential inhibitor was used to generate data for calculating the concentration of inhibitor resulting in 50% of the effect (e.g. IC50, the concentration of the competitor inhibiting glycine uptake of 50%). A solution was then immediately added containing [^3H]-glycine 60 nM (11-16 Ci/mmol) and 25 μM non-radioactive glycine. The plates were incubated with gentle shaking and the reaction was stopped by aspiration of the mixture and washing (three times) with ice-cold UB. The cells were lysed with scintillation liquid, shaken 3 hours and the radioactivity in the cells was counted using a scintillation counter.
`N[C@@H](c1ccc(Cl)cc1)[C@H](O)c1ccc(N2CCOCC2)nc1` (racemic) [Example 80, rac-erythro-2-Amino-2-(4-chloro-phenyl)-1-(6-morpholin-4-yl-pyridin-3-yl)-ethanol]: the IC50 (in general, the concentration at which inhibition is half-maximal) is 1.04 µM.
On to `N[C@@H](c1ccc(Cl)c(Cl)c1)[C@H](O)c1ccc(OCC2CCCO2)cc1F` (mixture of isomers) [Example 28, rac-erythro-[2-Amino-2-(3,4-dichloro-phenyl)-1-[2-fluoro-4-(tetrahydro-furan-2-ylmethoxy)-phenyl]-ethanol, hydrochloride salt], for which the IC50 stood at 0.33 µM.
To `N[C@@H](c1ccc(Cl)c(F)c1)[C@H](O)c1ccc(-c2cccnc2)cc1` (racemic) [Example 84] belongs 0.033 µM; to `N[C@@H](c1ccc(Cl)c(Cl)c1)[C@H](O)c1ccc(OC2CCOCC2)cn1` (racemic) [Example 25, rac-erythro-[2-Amino-2-(3,4-dichloro-phenyl)-1-[5-(tetrahydro-pyran-4-yloxy)-pyridin-2-yl]-ethanoldihydrochloride], 0.216 µM.
The value for `N[C@@H](c1ccc(Cl)cc1)[C@H](O)c1ccc(-c2ccccc2F)cc1` (racemic) [Example 68, rac-erythro-2-Amino-2-(4-chloro-phenyl)-1-(2′-fluoro-biphenyl-4-yl)-ethanol] was 0.18 µM; that for `COCc1cccc(-c2ccc([C@@H](O)[C@@H](N)c3ccc(Cl)cc3)cc2)c1` (racemic) [Example 60, rac-erythro-2-Amino-2-(4-chloro-phenyl)-1-(3′-methoxymethyl-biphenyl-4-yl)-ethanol hydrochloride] was 0.261 µM.
As for `N[C@@H](c1ccc(Cl)c(Cl)c1)[C@H](O)c1ccc(-c2cccc([N+](=O)[O-])c2)cc1` (racemic) [Example 103, rac-erythro-2-Amino-2-(3,4-dichloro-phenyl)-1-(3′-nitro-biphenyl-4-yl)-ethanol], the IC50 was found to be 0.412 µM.
To `Cc1cc(OC2CCOC2)ncc1[C@@H](O)[C@@H](N)c1ccc(Cl)c(Cl)c1` (mixture of isomers) [Example 24, rac-erythro-[(rac)-2-Amino-2-(3,4-dichloro-phenyl)-1-[4-methyl-6-(tetrahydro-furan-3-yloxy)-pyridin-3-yl]-ethanoldihydrochloride] belongs 0.205 µM.
The value for `N[C@@H](c1ccc(Cl)c(Cl)c1)[C@H](O)c1ccc(-c2cncc(F)c2)cn1` (racemic) [Example 12, rac-erythro-[2-Amino-2-(3,4-dichloro-phenyl)-1-(5′-fluoro-[3,3′]bipyridinyl-6-yl)-ethanoltrihydrochloride] was 0.148 µM; that for `N[C@@H](c1ccc(Cl)cc1)[C@H](O)c1ccc(-c2cccc(C(F)(F)F)c2)cc1` (racemic) [Example 79, rac-erythro-2-Amino-2-(4-chloro-phenyl)-1-(3′-trifluoromethyl-biphenyl-4-yl)-ethanol] was 0.93 µM.
Take `N[C@@H](c1ccc(Cl)c(Cl)c1)[C@H](O)c1ccc(OCC2CCOCC2)cc1` (racemic) [Example 45, rac-erythro-[2-Amino-2-(3,4-dichloro-phenyl)-1-[4-(tetrahydro-pyran-4-ylmethoxy)-phenyl]-ethanol]: the IC50 was found to be 0.147 µM.
To `N[C@@H](c1ccc(Cl)c(Cl)c1)[C@H](O)c1ccc(OC2CCOCC2)cc1` (single isomer, unassigned) [Example 41, (1R,2S or 1S,2R)-[2-Amino-2-(3,4-dichloro-phenyl)-1-[4-(tetrahydro-pyran-4-yloxy)-phenyl]-ethanol] belongs 0.021 µM; to `N[C@@H](c1ccc(Cl)cc1)[C@H](O)c1ccc(OCC(F)(F)C(F)(F)F)cc1F` (racemic) [Example 101, rac-erythro-2-Amino-2-(4-chloro-phenyl)-1-[2-fluoro-4-(2,2,3,3,3-pentafluoro-propoxy)-phenyl]-ethanol], 0.334 µM.
To `CCO[C@H](c1ccc(-c2cncc(F)c2)cc1)[C@@H](N)c1ccc(Cl)c(Cl)c1` (racemic) [Example 99, rac-erythro-[1-(3,4-Dichloro-phenyl)-2-ethoxy-2-[4-(5-fluoro-pyridin-3-yl)-phenyl]-ethylamine trifluoroacetate] belongs 0.285 µM.
The value for `CC(C)Oc1ccc([C@@H](O)[C@@H](N)c2ccc(Cl)c(Cl)c2)nc1` (racemic) [Example 32, rac-erythro-[2-Amino-2-(3,4-dichloro-phenyl)-1-(5-isopropoxy-pyridin-2-yl)-ethanoldihydrochloride] was 0.842 µM.
For the molecule `Cc1nc(C)c(-c2ccc([C@@H](O)[C@@H](N)c3ccc(Cl)cc3)cc2)s1` (racemic) [Example 75, rac-erythro-2-Amino-2-(4-chloro-phenyl)-1-[4-(2,4-dimethyl-thiazol-5-yl)-phenyl]-ethanol], the IC50 turned out to be 0.582 µM.
As for `Cc1cc(OC2CCOCC2)ncc1[C@@H](O)[C@@H](N)c1ccc(Cl)c(Cl)c1` (racemic) [Example 21, rac-erythro-[2-Amino-2-(3,4-dichloro-phenyl)-1-[4-methyl-6-(tetrahydro-pyran-4-yloxy)-pyridin-3-yl]-ethanoldihydrochloride], the IC50 is 0.091 µM.
To `CC1(COc2ccc([C@@H](O)[C@@H](N)c3ccc(Cl)c(Cl)c3)c(F)c2)COC1` (racemic) [Example 34, rac-erythro-[2-Amino-2-(3,4-dichloro-phenyl)-1-[2-fluoro-4-(3-methyl-oxetan-3-ylmethoxy)-phenyl]-ethanol] belongs 0.023 µM.
The value for `CS(=O)(=O)c1cccc(-c2cccc([C@@H](O)[C@@H](N)c3ccc(Cl)c(Cl)c3)c2)c1` (racemic) [Example 5, rac-erythro-[2-Amino-2-(3,4-dichloro-phenyl)-1-(3′-methanesulfonyl-biphenyl-3-yl)-ethanol trifluoroacetate] was 0.615 µM; that for `N[C@@H](c1ccc(C(F)(F)F)c(F)c1)[C@H](O)c1ccc(-c2cccnc2)cc1` (racemic) [Example 95, rac-erythro-2-Amino-2-(3-fluoro-4-trifluoromethyl-phenyl)-1-(4-pyridin-3-yl-phenyl)-ethanol] was 0.158 µM; that for `CS(=O)(=O)c1cccc(-c2ccc([C@@H](O)[C@@H](N)c3ccc(Cl)c(Cl)c3)nc2)c1` (racemic) [Example 11, rac-erythro-[2-Amino-2-(3,4-dichloro-phenyl)-1-[5-(3-methanesulfonyl-phenyl)-pyridin-2-yl]-ethanol bistrifluoroacetate] was 0.097 µM.
For the molecule `COc1ccc(-c2ccc([C@@H](O)[C@@H](N)c3ccc(Cl)cc3)cc2)cn1` (racemic) [Example 77, rac-erythro-2-Amino-2-(4-chloro-phenyl)-1-[4-(6-methoxy-pyridin-3-yl)-phenyl]-ethanol], the IC50 worked out at 0.814 µM.
The value for `Cc1ccc([C@H](N)[C@H](O)c2ccc(OC3CCOC3)cc2)cc1Cl` (mixture of isomers) [Example 55, rac-erythro-[2-Amino-2-(3-chloro-4-methyl-phenyl)-1-[4-(tetrahydro-furan-3-yloxy)-phenyl]-ethanol] was 0.131 µM.
The value for `N[C@@H](c1ccc(Cl)c(Cl)c1)[C@H](O)c1ccc(OCC(O)CCCl)cc1F` (mixture of isomers) [Example 29, rac-erythro-[1-[4-[(rac)-2-Amino-2-(3,4-dichloro-phenyl)-1-hydroxy-ethyl]-3-fluoro-phenoxy]-4-chloro-butan-2-ol hydrochloride] was 0.462 µM.
Consider `N[C@@H](c1ccc(Cl)cc1)[C@H](O)c1ccc(-c2cncnc2)cc1` (racemic) [Example 65, rac-erythro-2-Amino-2-(4-chloro-phenyl)-1-(4-pyrimidin-5-yl-phenyl)-ethanol], for which the IC50 was found to be 0.139 µM.
With `CC(C)Oc1ccc(F)c(-c2ccc([C@@H](O)[C@@H](N)c3ccc(Cl)c(Cl)c3)cc2)c1` (racemic) [Example 105, rac-erythro-2-Amino-2-(3,4-dichloro-phenyl)-1-(2′-fluoro-5′-isopropoxy-biphenyl-4-yl)-ethanol], the IC50 was determined as 0.567 µM.
